{"source": "patent US5438057A", "about": "“Pharmaceutical compositions” (priority 1991, dated 1995)", "key": {"[1]": {"test_system": "acute daunorubicin toxicity", "conditions": "Herman et al, Res. Commun. Chem. Pathol. Pharmacol., 1985, 48, 39; cited from earlier work"}, "[2]": {"test_system": "daunorubicin toxicity; doxorubicin toxicity", "conditions": "Herman et al, Adv. Pharmacol. Chemother., 1982, 19, 249; cited from earlier work"}, "[3]": {"test_system": "doxorubicin-induced cardiotoxicity", "assay": "Protective activity against doxorubicin-induced cardiotoxicity: cardiac output, heart rate, survival, congestive heart failure at 8 weeks", "type": "in vivo, Sprague Dawley rats", "conditions": "for Survival: survivors/animals; for Incidence of CHF (congestive heart failure): over 8 weeks", "description": "(§1) Mature male Sprague Dawley rats, 13-14 weeks old, weighing 400-500 gm were used. The animals were caged in groups of three and were kept in a constant environment. They were fed 41-B cubed diet and water ad libitum. The animal house was maintained in an alternating 12-hour wake-sleep cycle.\n(§2) The cardioprotective activity of (±) trans-1,2-bis(3,5-dioxopiperazin-1-yl)cyclobutane (hereinafter referred to as the compound) was studied in the rats. […] The suspension was prepared shortly before use and was administered at a constant injection volume of 1 ml per 100 gm body weight. Doxorubicin hydrochloride (hereafter referred to as doxorubicin) (Farmitalia, Milan, Italy) was dissolved in sterile water (2 mg/ml) before injection.\n(§3) A group of 6 animals received a combined treatment of the compound and doxorubicin. The compound was administered to animals as a single intraperitoneal (i.p.) injection into the lower right quadrant of the abdomen to avoid damage to vital organs. An hour after the administration of the compound, the animals received a single intravenous (i.v.) injection of doxorubicin (4 mg/kg), via the femoral vein. A group of 10 animals received an i.p. injection of saline (1 ml/100 gm) followed by an i.v. injection of saline (0.2 ml/100 gm) one hour later. These rats acted as control animals. Nine animals received an i.p. injection of saline one hour before an i.v. administration of doxorubicin (4 mg/kg). To minimise the effects of circadian timing, doxorubicin administration was carried out between 13.30 hours and 15.30 hours. During intravenous drug administration and for subsequent cardiac output measurements, animals were anaesthetised with choral hydrate (300 mg/kg).\nThe protective activity of the compound against doxorubicin-induced cardiotoxicity in the rats was assessed at 8 weeks by measuring the cardiac output in animals receiving the treatment using an external counting technique wherein a radioactive tracer, technetium (^99m TcO4), was injected as a bolus into the femoral vein of an anaesthetised animal. The activity time curve over the heart was recorded at 0.1 second intervals for 40 seconds, using an NaI detector connected to a multi-channel analyzer (ND-62, Nuclear Data). ECG and heart rate were determined concomitantly with the cardiac output measurement, using a human ECG monitor (Hewlett Packard 7830A) coupled to a scope memory (model VK-12-2, Seltek Instrument Ltd.) and a chart recorder.\nGross post mortem examinations were carried out on the animals that died during the study as well as those killed at the end of experiment (8 weeks).\n(§4) In this study, statistical differences between group means were analysed using Student's t-test."}, "[4]": {"assay": "Body weight (general acute toxicity) after i.p. pretreatment and doxorubicin", "type": "in vivo, Sprague Dawley rats", "description": "as §1, §2, §3\nThe animals were weighed daily for up to three weeks after receiving treatment. The maximum reduction in body weight over this period was used as an index for the assessment of general acute toxicity. Animals were also weighed at 4 and 8 weeks to assess the general toxicity of the drug.\nas §4"}, "[5]": {"assay": "Solubility in saline / aqueous media", "type": "physicochemical", "conditions": "administered as suspension in 0.5% CMC"}, "[6]": {"conditions": "saline + doxorubicin 4 mg/kg, 8 weeks"}, "[7]": {"conditions": "saline i.p. + doxorubicin 4 mg/kg i.v. after 1 hour, 8 weeks"}, "[8]": {"conditions": "saline i.p. + doxorubicin 4 mg/kg i.v. after 1 hour"}, "[9]": {"conditions": "compound 100 mg/kg i.p. + doxorubicin 4 mg/kg i.v. after 1 hour, 8 weeks"}, "[10]": {"conditions": "compound 150 mg/kg i.p. + doxorubicin 4 mg/kg i.v. after 1 hour, 8 weeks"}, "[11]": {"conditions": "compound 200 mg/kg i.p. + doxorubicin 4 mg/kg i.v. after 1 hour, 8 weeks"}, "[12]": {"conditions": "compound 100, 150 or 200 mg/kg i.p. + doxorubicin 4 mg/kg"}}}
{"smiles": "CC(CN1CC(=O)N(C)C(=O)C1)N1CC(=O)N(C)C(=O)C1", "note": "(stereo not drawn) [R=R\"=CH3and R'=H (l)]", "values": [{"measurement": "protective effect against acute daunorubicin toxicity", "setting": "[1]", "result": "either no protective activity or only minimal protective activity"}]}
{"smiles": "O=C1CN(CCCN2CC(=O)NC(=O)C2)CC(=O)N1", "values": [{"measurement": "protective effect against acute daunorubicin toxicity", "setting": "[1]", "result": "either no protective activity or only minimal protective activity"}]}
{"smiles": "CN1C(=O)CN(CCN2CC(=O)N(C)C(=O)C2)CC1=O", "note": "[R=R'=H and R\"=CH3]", "values": [{"measurement": "protective effect against acute daunorubicin toxicity", "setting": "[1]", "result": "either no protective activity or only minimal protective activity"}]}
{"smiles": "O=C1CN(C2CCC2N2CC(=O)NC(=O)C2)CC(=O)N1", "note": "(stereo not drawn) [R+R'=--CH2 --CH2 -- and R\"=H]", "values": [{"measurement": "protective effect against acute daunorubicin toxicity", "setting": "[1]", "result": "either no protective activity or only minimal protective activity"}]}
{"smiles": "CC[C@H]([C@H](C)N1CC(=O)NC(=O)C1)N1CC(=O)NC(=O)C1", "note": "(relative stereo) [R: CH3, R'=C2 H5 and R\"=H (dl-erythro)]", "values": [{"measurement": "protective effect against acute daunorubicin toxicity", "setting": "[1]", "result": "either no protective activity or only minimal protective activity"}]}
{"smiles": "CC(CN1CC(=O)NC(=O)C1)N1CC(=O)NC(=O)C1", "note": "(racemic) [ICRF 159]", "values": [{"measurement": "effectiveness in reducing high dose daunorubicin toxicity relative to doxorubicin toxicity", "setting": "[2]", "result": "consistently more effective in reducing high dose daunorubicin toxicity than doxorubicin toxicity"}]}
{"smiles": "COc1cccc2c1C(=O)c1c(O)c3c(c(O)c1C2=O)C[C@@](O)(C(=O)CO)C[C@@H]3O[C@H]1C[C@H](N)[C@H](O)[C@H](C)O1", "note": "[doxorubicin]", "values": [{"measurement": "reduction in cardiac output", "setting": "[3]; [6]", "result": 60, "unit": "%"}, {"measurement": "reduction in heart rate", "setting": "[3]; [6]", "result": 35, "unit": "%"}, {"measurement": "death during study", "setting": "[3]; saline + doxorubicin 4 mg/kg, 9 animals", "result": "one animal died just before 8 weeks"}, {"measurement": "RCO: mean relative cardiac output (treated / age-matched control)", "setting": "[3]; [7]", "result": "0.41 ± 0.04"}, {"measurement": "RHR: mean relative heart rate (treated / age-matched control)", "setting": "[3]; [7]", "result": "0.65 ± 0.19"}, {"measurement": "Survival", "setting": "[3]; [7]", "result": "8/9"}, {"measurement": "Incidence of CHF (congestive heart failure)", "setting": "[3]; [8]", "result": "0/8"}, {"measurement": "reduction in body weight in the first three weeks after treatment", "setting": "[4]; doxorubicin 4 mg/kg i.v., pretreated with saline i.p.", "result": "> 10", "unit": "%"}, {"measurement": "W2: mean body weight at 4 weeks after treatment", "setting": "[4]; [8]", "result": "381 ± 8"}, {"measurement": "W3: mean body weight at 8 weeks after treatment", "setting": "[4]; [8]", "result": "324 ± 27"}, {"measurement": "ΔW(%): maximum reduction in body weight in the first 3 weeks after treatment", "setting": "[4]; [8]", "result": "11.6 ± 0.7", "unit": "%"}, {"measurement": "W1: mean body weight of animals at the time of injection", "setting": "[4]; saline i.p. + doxorubicin 4 mg/kg i.v. after 1 hour, baseline", "result": "447 ± 11"}]}
{"smiles": "CCC(CN1CC(=O)NC(=O)C1)N1CC(=O)NC(=O)C1", "note": "(racemic) [R=C2 H5 and R'=R\"=H (dl)]", "values": [{"measurement": "protective effect against acute daunorubicin toxicity", "setting": "[1]", "result": "either no protective activity or only minimal protective activity"}]}
{"smiles": "O=C1CN([C@@H]2CC[C@H]2N2CC(=O)NC(=O)C2)CC(=O)N1", "note": "(racemic) [Compound, (±) trans-1,2-bis(3,5-dioxopiperazin-1-yl)cyclobutane]", "values": [{"measurement": "change in heart rate", "setting": "[3]; animals pretreated with the compound + doxorubicin 4 mg/kg", "result": "no change in heart rate"}, {"measurement": "RCO: mean relative cardiac output (treated / age-matched control)", "setting": "[3]; [9]", "result": "0.80 ± 0.05"}, {"measurement": "RHR: mean relative heart rate (treated / age-matched control)", "setting": "[3]; [9]", "result": "1.04 ± 0.03"}, {"measurement": "Survival", "setting": "[3]; [9]", "result": "6/6"}, {"measurement": "Incidence of CHF (congestive heart failure)", "setting": "[3]; compound 100 mg/kg i.p. + doxorubicin 4 mg/kg i.v. after 1 hour", "result": "0/6"}, {"measurement": "RCO: mean relative cardiac output (treated / age-matched control)", "setting": "[3]; [10]", "result": "0.86 ± 0.06"}, {"measurement": "RHR: mean relative heart rate (treated / age-matched control)", "setting": "[3]; [10]", "result": "1.00 ± 0.04"}, {"measurement": "Survival", "setting": "[3]; [10]", "result": "6/6"}, {"measurement": "Incidence of CHF (congestive heart failure)", "setting": "[3]; compound 150 mg/kg i.p. + doxorubicin 4 mg/kg i.v. after 1 hour", "result": "0/6"}, {"measurement": "RCO: mean relative cardiac output (treated / age-matched control)", "setting": "[3]; [11]", "result": "0.84 ± 0.05"}, {"measurement": "RHR: mean relative heart rate (treated / age-matched control)", "setting": "[3]; [11]", "result": "1.05 ± 0.03"}, {"measurement": "Survival", "setting": "[3]; [11]", "result": "6/6"}, {"measurement": "Incidence of CHF (congestive heart failure)", "setting": "[3]; compound 200 mg/kg i.p. + doxorubicin 4 mg/kg i.v. after 1 hour", "result": "0/6"}, {"measurement": "activity against doxorubicin-induced cardiotoxicity", "setting": "[3]; [12]", "result": "significant activity against doxorubicin-induced cardiotoxicity"}, {"measurement": "survival (in words)", "setting": "[3]; [12]", "result": "survived the course of study of 8 weeks"}, {"measurement": "signs of congestive failure", "setting": "[3]; compound 100, 150 or 200 mg/kg i.p. + doxorubicin 4 mg/kg, 8 weeks", "result": "without showing any signs of congestive failure"}, {"measurement": "impairment in cardiac output compared to saline and doxorubicin", "setting": "[3]; compound 100, 150 or 200 mg/kg i.p. + doxorubicin 4 mg/kg, p<0.001", "result": "significantly less impairment in cardiac output"}, {"measurement": "dose dependence of the protective activity", "setting": "[3]; dose range 100-200 mg/kg i.p. + doxorubicin 4 mg/kg", "result": "no indication of dose dependent changes in the protective activity"}, {"measurement": "solubility in saline", "setting": "[5]", "result": "inadequately soluble in saline"}]}
{"smiles": "O=C1CN(CCN2CC(=O)NC(=O)C2)CC(=O)N1", "note": "[R=R'=R\"=H]", "values": [{"measurement": "protective effect against acute daunorubicin toxicity", "setting": "[1]", "result": "either no protective activity or only minimal protective activity"}]}
{"smiles": "O=C1CN(CCN2CC(=O)N(CN3CCOCC3)C(=O)C2)CC(=O)N1CN1CCOCC1", "note": "[bimolane]", "values": [{"measurement": "protective effect against acute daunorubicin toxicity", "setting": "[1]", "result": "give protection against the lethal effects of daunorubicin"}]}
{"smiles": "C[C@H]([C@H](C)N1CC(=O)NC(=O)C1)N1CC(=O)NC(=O)C1", "note": "[R=R'=CH3 and R\"=H (meso)]", "values": [{"measurement": "protective effect against acute daunorubicin toxicity", "setting": "[1]", "result": "either no protective activity or only minimal protective activity"}]}
{"smiles": "CC(CN1CC(=O)NC(=O)C1)N1CC(=O)NC(=O)C1", "note": "(racemic) [the compound having R=CH3 and R'=R\"=H (as the dl, d or l isomer)]", "values": [{"measurement": "protective effect against acute daunorubicin toxicity", "setting": "[1]", "result": "give protection against the lethal effects of daunorubicin"}]}
